In patent publication US10626094B2 (La Jolla Institute of Allergy & Immunology, priority 2014, dated 2020) one finds IC50 data, which are given here for 60 compounds.

Structures are written as SMILES.

Chain of LMPTP-A (Low Molecular Weight Protein Tyrosine Phosphatase-A) enzyme (P24666 whole entry): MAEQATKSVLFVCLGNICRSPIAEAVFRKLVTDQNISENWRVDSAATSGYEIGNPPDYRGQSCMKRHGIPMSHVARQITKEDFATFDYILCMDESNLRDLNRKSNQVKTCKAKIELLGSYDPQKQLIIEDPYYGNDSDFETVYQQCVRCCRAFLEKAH

The target of this test is LMPTP-A (Low Molecular Weight Protein Tyrosine Phosphatase-A) enzyme (Homo sapiens (Human), UniProt P24666). The experiment in a line: LMPTP primary screening / LMPTP (OMFP) enzyme inhibition assay, fluorescence intensity. The format is biochemical. Particulars: LMPTP-A, OMFP substrate, method of Example 2; read-out: IC50. Put shortly:
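Single-concentration screen, test compounds 20 μM final, […]. Enzyme (0.625 nM) and OMFP (400 μM) react 50 min at room temp, dark, in Bis-Tris buffer pH 6.0 containing DTT 1 mM and Triton X-100 0.01%. Read-out: fluorescence intensity.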
As to `CN(C)Cc1ccc(Nc2cc(-c3cc(C(F)(F)F)cc(C(F)(F)F)c3)nc3ccccc23)cc1` [Compound I47, {[4-({2-[3,5-bis(trifluoromethyl)phenyl](4-quinolyl)}amino)phenyl]methyl}dimethylamine], the IC50 was greater than 5000 nM.
Under `C[N+]1(C)CCC(Cc2ccccc2Nc2cc(-c3cc(C(F)(F)F)cc(C(F)(F)F)c3)nc3ccccc23)CC1` [Compound I48, {2-[(1,1-dimethyl(4-piperidyl))methyl]phenyl} {2-[3,5-bis(trifluoromethyl)phenyl](4-quinolyl)}amine] stands greater than 5000 nM; under `FC(F)(F)c1cc(-c2cc(Nc3ccccc3CC3CCNCC3)c3ccccc3n2)cc(C(F)(F)F)c1` [Compound I49, {2-[3,5-bis(trifluoromethyl)phenyl](4-quinolyl)}[2-(4-piperidylmethyl)phenyl]amine], greater than 5000 nM.
Next, `FC(F)(F)c1cc(-c2cc(Nc3cccc(CC4CCN(Cc5ccccc5)CC4)c3)c3ccccc3n2)cc(C(F)(F)F)c1` [Compound I50, {2-[3,5-bis(trifluoromethyl)phenyl](4-quinolyl)}(3-{[1-benzyl(4-piperidyl)]methyl}phenyl)amine]: greater than 5000 nM; `C[N+]1(C)CCC(Cc2cccc(Nc3cc(-c4cc(C(F)(F)F)cc(C(F)(F)F)c4)nc4ccccc34)c2)CC1` [Compound I51, {3-[(1,1-dimethyl(4-piperidyl))methyl]phenyl} {2-[3,5-bis(trifluoromethyl)phenyl](4-quinolyl)}amine]: greater than 5000 nM; `FC(F)(F)c1cc(-c2cc(Nc3cccc(CC4CCNCC4)c3)c3ccccc3n2)cc(C(F)(F)F)c1` [Compound I52, {2-[3,5-bis(trifluoromethyl)phenyl](4-quinolyl)}[3-(4-piperidylmethyl)phenyl]amine]: greater than 5000 nM.
Regarding `CN1CCCC1CCNc1cc(-c2ccc(C(F)(F)F)cc2C(F)(F)F)nc2ccccc12` (stereo not drawn) [Compound I53, {2-[2,4-bis(trifluoromethyl)phenyl](4-quinolyl)}[2-(1-methylpyrrolidin-2-yl)ethyl]amine], the IC50 was greater than 5000 nM.
`CN(C)Cc1ccc(Nc2cc(-c3ccc(C(F)(F)F)cc3C(F)(F)F)nc3ccccc23)cc1` [Compound I54, {[4-({2-[2,4-bis(trifluoromethyl)phenyl](4-quinolyl)}amino)phenyl]methyl}dimethylamine]: the IC50 is greater than 5000 nM.
Under `FC(F)(F)c1ccc(-c2cc(Nc3ccccc3CC3CCNCC3)c3ccccc3n2)c(C(F)(F)F)c1` [Compound I55, {2-[2,4-bis(trifluoromethyl)phenyl](4-quinolyl)}[2-(4-piperidylmethyl)phenyl]amine] stands greater than 5000 nM; under `CC(C)C(=O)Nc1ccc(-c2cc(NCCCN3CCCCC3)c3ccccc3n2)cc1` [Compound I56], 801 to 5000 nM.
As to `O=C(Nc1ccc(-c2cc(NCCCN3CCCCC3)c3ccccc3n2)cc1)c1ccccc1` [Compound I57], the 50% inhibitory concentration (IC50) lay in the range of 200 to 800 nM.
`O=C(O)CCC(=O)Nc1ccc(-c2cc(NCCCN3CCCCC3)c3ccccc3n2)cc1` [Compound I58]: the IC50 lay in the range of 801 to 5000 nM.
Next, `N#CCCNC(=O)c1ccc(-c2cc(NCCCN3CCCCC3)c3ccccc3n2)cc1` [Compound I59]: 200 to 800 nM; `CC(C)NC(=O)c1ccc(-c2cc(NCCCN3CCCCC3)c3ccccc3n2)cc1` [Compound I61, N-(methylethyl)(4-{4-[(3-piperidylpropyl)amino](2-quinolyl)}phenyl)carboxamide]: 801 to 5000 nM.
Under `CCNC(=O)c1ccc(-c2cc(NCCCN3CCCCC3)c3ccccc3n2)cc1` [Compound I62] stands 801 to 5000 nM; under `O=C(NCC(F)(F)F)c1ccc(-c2cc(NCCCN3CCCCC3)c3ccccc3n2)cc1` [Compound I63], 801 to 5000 nM; under `O=C(NCC1CCCO1)c1ccc(-c2cc(NCCCN3CCCCC3)c3ccccc3n2)cc1` (stereo not drawn) [Compound I64], 801 to 5000 nM.
Next, `CCOC(=O)CNC(=O)c1ccc(-c2cc(NCCCN3CCCCC3)c3ccccc3n2)cc1` [Compound I65]: 200 to 800 nM; `CN(C)CCNC(=O)c1ccc(-c2cc(NCCCN3CCCCC3)c3ccccc3n2)cc1` [Compound I66]: 200 to 800 nM.
On to `O=C(NCCCO)c1ccc(-c2cc(NCCCN3CCCCC3)c3ccccc3n2)cc1` [Compound I67], for which the IC50 fell in the range of 200 to 800 nM.
As to `O=C(O)CNC(=O)c1ccc(-c2cc(NCCCN3CCCCC3)c3ccccc3n2)cc1` [Compound I68], the IC50 lay in the range of 801 to 5000 nM.
Under `COC(=O)CNC(=O)c1ccc(-c2cc(NCCCN3CCCCC3)c3ccccc3n2)cc1` [Compound I69] stands 801 to 5000 nM; under `CCN(CC)C(=O)c1ccc(-c2cc(NCCCC3CCCNC3)c3ccccc3n2)cc1` (stereo not drawn) [Compound I71, N,N-diethyl(4-{4-[(3-piperidylpropyl)amino](2-quinolyl)}phenyl)carboxamide], 200 to 800 nM.
Next, `CN(C)C(=O)c1ccc(-c2cc(NCCCN3CCCCC3)c3ccccc3n2)cc1` [Compound I72]: 801 to 5000 nM.
Under `CNC(=O)c1ccc(-c2cc(NCCCN3CCCCC3)c3ccccc3n2)cc1` [Compound I73] stands 801 to 5000 nM.
With `FC(F)(F)c1ccc(Nc2cc(NCCCN3CCCCC3)c3ccccc3n2)c(C(F)(F)F)c1` [Compound I75], the IC50 is greater than 5000 nM.
For the compound `Clc1cccc(Nc2cc(NCCCN3CCCCC3)c3ccccc3n2)c1` [Compound I76], the IC50 is greater than 5000 nM.
Next, `CC(=O)Nc1ccc(-c2cc(NCCCN3CCCCC3)c3ccccc3n2)cc1C(F)(F)F` [Compound I77]: 801 to 5000 nM.
Under `c1ccc2c(NCCCN3CCCCC3)cc(-c3ccc4ccsc4c3)nc2c1` [Compound I78] stands 200 to 800 nM; under `CC(=O)OCc1cccc(-c2cc(NCCCN3CCCCC3)c3ccccc3n2)c1` [Compound I79, 3-{4-[(3-piperidylpropyl)amino]-2-quinolyl}phenyl)methyl acetate], 801 to 5000 nM; under `Nc1cc(C(=O)N2CCOCC2)cc(-c2cc(NCCCN3CCCCC3)c3ccccc3n2)c1` [Compound I80], 801 to 5000 nM.
`NC(=O)c1ccc(-c2cc(NCCCN3CCCCC3)c3ccccc3n2)cc1F` [Compound I81]: the IC50 lay in the range of 200 to 800 nM.
Under `NC(=O)c1ccc(-c2cc(NCCCN3CCCCC3)c3ccccc3n2)cc1Cl` [Compound I82] stands 200 to 800 nM; under `Cc1cc(-c2cc(NCCCN3CCCCC3)c3ccccc3n2)cnc1C#N` [Compound I83], 801 to 5000 nM.
Next, `O=C(c1ccc(-c2cc(NCCCN3CCCCC3)c3ccccc3n2)cc1)N1CCCC1` [Compound I84, 4-{4-[(3-piperidylpropyl)amino](2-quinolyl)}phenyl pyrrolidinyl ketone]: 801 to 5000 nM; `Fc1cc(F)cc(-c2cc(NCCCN3CCCCC3)c3ccccc3n2)c1` [Compound I85]: 801 to 5000 nM.
Next, `Fc1cc(F)c(-c2cc(NCCCN3CCCCC3)c3ccccc3n2)cc1F` [Compound I86]: 801 to 5000 nM; `FC(F)(F)c1ccc(Oc2ccc(-c3cc(NCCCN4CCCCC4)c4ccccc4n3)cn2)cc1` [Compound I87]: 801 to 5000 nM; `Fc1ccc(-c2cc(NCCCN3CCCCC3)c3ccccc3n2)c(F)n1` [Compound I90]: 801 to 5000 nM.
Consider `CSc1cncc(-c2cc(NCCCN3CCCCC3)c3ccccc3n2)c1` [Compound I92], for which the IC50 is 801 to 5000 nM.
Under `CCCCOc1ncccc1-c1cc(NCCCN2CCCCC2)c2ccccc2n1` [Compound I93] stands 801 to 5000 nM; under `Fc1cccnc1-c1cc(NCCCN2CCCCC2)c2ccccc2n1` [Compound I94], 801 to 5000 nM; under `CCOc1ncccc1-c1cc(NCCCN2CCCCC2)c2ccccc2n1` [Compound I96], 801 to 5000 nM.
Under `Fc1cccc(-c2cc(NCCCN3CCCCC3)c3ccccc3n2)n1` [Compound I97] stands 801 to 5000 nM; under `CC(C)(C)OC(=O)n1c(-c2cc(NCCCN3CCCCC3)c3ccccc3n2)cc2ccccc21` [Compound I98, tert-butyl 2-{4-[(3-piperidylpropyl)amino]-2-quinolyl}indolecarboxylate], greater than 5000 nM.
Next, `Clc1ncccc1-c1cc(NCCCN2CCCCC2)c2ccccc2n1` [Compound I99]: 801 to 5000 nM; `Clc1cc(-c2cc(NCCCN3CCCCC3)c3ccccc3n2)ccn1` [Compound I102]: 801 to 5000 nM; `CCOc1ccc(C(F)(F)F)c(-c2cc(NCCCN3CCCCC3)c3ccccc3n2)c1` [Compound I105]: 801 to 5000 nM.
On to `CN(C)S(=O)(=O)c1ccc(C(F)(F)F)c(-c2cc(NCCCN3CCCCC3)c3ccccc3n2)c1` [Compound I106], for which the IC50 was 801 to 5000 nM.
Under `Cc1ccc(C)c(-c2cc(NCCCN3CCCCC3)c3ccccc3n2)c1` [Compound I107] stands 801 to 5000 nM.
Next, `COc1ccc(-c2cc(NCCCN3CCCCC3)c3ccccc3n2)cc1OC` [Compound I108]: 801 to 5000 nM; `Cn1ccc2cc(-c3cc(NCCCN4CCCCC4)c4ccccc4n3)ccc21` [Compound I109]: 200 to 800 nM.
As to `c1ccc2c(NCCCN3CCCCC3)cc(-c3ccc4[nH]ccc4c3)nc2c1` [Compound I110], the IC50 lay in the range of 801 to 5000 nM.
Under `c1ccc2c(NCCCN3CCCCC3)cc(-c3ccc4nc[nH]c4c3)nc2c1` [Compound I111] stands 801 to 5000 nM.
Next, `Cc1noc(C)c1-c1cc(NCCCN2CCCCC2)c2ccccc2n1` [Compound I112]: greater than 5000 nM.
Next, `CSc1ccc(-c2cc(NCCCN3CCCCC3)c3ccccc3n2)c(C(F)(F)F)c1` [Compound I114]: 801 to 5000 nM.
On to `Fc1ccc(-c2cc(NCCCN3CCCCC3)c3ccccc3n2)c(F)c1F` [Compound I115], for which the IC50 lay within 801 to 5000 nM.
With `CC(=O)Nc1ccccc1-c1cc(NCCCN2CCCCC2)c2ccccc2n1` [Compound I116], the IC50 is greater than 5000 nM.
Under `CC(=O)Nc1ccc(-c2cc(NCCCN3CCCCC3)c3ccccc3n2)cc1` [Compound I117] stands 801 to 5000 nM.
For `CC(=O)Nc1cccc(-c2cc(NCCCN3CCCCC3)c3ccccc3n2)c1` [Compound I118], the IC50 is 801 to 5000 nM.

One may read the IC50 as the point on the concentration scale where inhibition reaches its midpoint.
